Measurements reported in PubChem BioAssay AID1996.
In brackets after ≈: the same amount, converted by molar mass.

Details: buffer; pH 7.4; 200.0 µM
In the case of `CCc1ccc(N2C(=O)C3C4C=CC(CC4)C3C2=O)cc1` (stereo unspecified), the solubility kinetic is reported as 14.3 µg/mL (≈ 50.8 µM). With `Cc1cccc(C)c1NC(=O)CN(C)C(=O)C1CCCCC1` the solubility kinetic was over 45.4 µg/mL. Work on `CC(OC(=O)C1=Cc2ccccc2OC1)C(=O)NCc1ccco1` (stereo unspecified) yielded a solubility kinetic of 7.1 µg/mL (≈ 21.7 µM). Work on `CN(C)/C(=N\S(=O)(=O)c1ccc(F)cc1)c1ccccc1` yielded a solubility kinetic of over 46 µg/mL. `Cc1cc(C)cc(N2C(=O)CSC2c2ccccn2)c1` (stereo unspecified) showed a solubility kinetic of over 42.7 µg/mL. Molecule `CCCC1=C(C(=O)OCC)C(c2ccco2)C(C#N)=C(N)O1` (stereo unspecified) has a solubility kinetic of 30.3 µg/mL (≈ 100 µM). Work on `COc1cccc(NC(=O)C2CCN(c3cnccn3)CC2)c1` yielded a solubility kinetic of over 46.9 µg/mL. Work on `CCOc1ccc(NC(=O)CSc2ccccc2N)cc1` yielded a solubility kinetic of over 45.4 µg/mL. `CCCN1CCC(NC(=S)Nc2ccc([N+](=O)[O-])cc2)CC1` showed a solubility kinetic of over 48.4 µg/mL. Work on `Cc1ccc(S(=O)(=O)N2CCOCC2)cc1NC(=O)COC(=O)/C=C/c1ccco1` yielded a solubility kinetic of 11.4 µg/mL (≈ 26.2 µM). For `CCOC(=O)NC(C)N1C(=O)C2C3C=CC(C3)C2C1=O` (stereo unspecified), the solubility kinetic was over 41.7 µg/mL. Work on `O=C(NCc1ccccc1)c1ccc(NC(=O)C2CCCO2)cc1` (stereo unspecified) yielded a solubility kinetic of over 48.7 µg/mL. Molecule `O=C(Nc1ccc(Br)cn1)c1ccc(Cl)s1` has a solubility kinetic of 1.4 µg/mL (≈ 4.41 µM). `CC(=O)Nc1ccc(NC(=O)C2(C)CC2(Cl)Cl)cc1` (stereo unspecified) gave a solubility kinetic of over 45.2 µg/mL. `O=C(Nc1cccnc1)NC1CCCCC1` gave a solubility kinetic of over 32.9 µg/mL. `O=C(NC12CC3CC(CC(C3)C1)C2)c1ccc([N+](=O)[O-])cc1` showed a solubility kinetic of 5.4 µg/mL (≈ 18 µM). With `Cc1noc(C)c1C(=O)N1CCC(C(=O)c2ccc(F)cc2F)CC1` the solubility kinetic was over 52.3 µg/mL. For `Cc1ccc(S(=O)(=O)N(C)CC(=O)N2CC(C)OC(C)C2)cc1` (stereo unspecified), the solubility kinetic was over 51.1 µg/mL. Molecule `Cc1onc(-c2ccccc2)c1CNS(=O)(=O)c1ccc(F)cc1F` has a solubility kinetic of 51.6 µg/mL (≈ 142 µM). Molecule `CCCC(=O)Nc1ccc(NCc2ccc(C)s2)cc1` has a solubility kinetic of over 43.3 µg/mL. `Brc1ccccc1-c1cnco1` showed a solubility kinetic of 8.5 µg/mL (≈ 37.9 µM). Molecule `CCOC(=O)Cc1csc(NC(=O)CN2CCN(CC)CC2)n1` has a solubility kinetic of 3.8 µg/mL (≈ 11.2 µM). With `CN(C(=O)c1ccco1)c1nc(-c2ccccc2)cs1` the solubility kinetic was under 0.3 µg/mL. `COc1ccc(S(=O)(=O)N2CCOCC2)cc1NC(=O)COC(=O)CC1CC2CCC1C2` (stereo unspecified) gave a solubility kinetic of 11.3 µg/mL (≈ 24.2 µM). Molecule `COC(=O)CSc1nc(NC(C)(C)C)nc(N(C)C)n1` has a solubility kinetic of 38.7 µg/mL (≈ 129 µM). Work on `COc1ccc(C(=O)COC(=O)CNC(=O)c2ccc(C)s2)c(OC)c1` yielded a solubility kinetic of over 56.6 µg/mL. With `Cc1noc(C)c1CC(=O)Nc1ccc2c(c1)OCO2` the solubility kinetic was over 41.1 µg/mL. In the case of `S=C(NCc1ccccc1)Nc1cccc2ccccc12`, the solubility kinetic is reported as 3.8 µg/mL (≈ 13 µM). `COc1ccc(CCNC(=O)c2ccc(=O)[nH]c2)cc1OC` showed a solubility kinetic of over 45.3 µg/mL. For `c1ccc2cc(Cn3ccnc3)ccc2c1`, the solubility kinetic was 28.5 µg/mL (≈ 137 µM). Work on `CCC(C)c1ccc(S(=O)(=O)N2CCN3CCCC3C2)cc1` (stereo unspecified) yielded a solubility kinetic of 34.1 µg/mL (≈ 106 µM). Work on `CC(C(=O)NC(c1ccccc1)c1ccccc1)N1CCOCC1` (stereo unspecified) yielded a solubility kinetic of 44.9 µg/mL (≈ 138 µM). In the case of `COc1ccc(Nc2ncnc3ccc(Br)cc23)c(OC)c1`, the solubility kinetic is reported as 7.3 µg/mL (≈ 20.3 µM). Work on `N#Cc1ccccc1OCC(=O)OCC(=O)NC1CCCCC1` yielded a solubility kinetic of over 47.5 µg/mL. Molecule `CC(=O)Nc1nc(C)c(-c2nc3ccc([N+](=O)[O-])cc3[nH]2)s1` has a solubility kinetic of 1.2 µg/mL (≈ 3.78 µM). `O=c1c2[nH]cnc2n(-c2ccc(F)cc2)c(=O)n1Cc1ccccc1` gave a solubility kinetic of over 50.4 µg/mL. In the case of `On1c(-c2ccccc2Cl)nc2ncccc21`, the solubility kinetic is reported as over 36.9 µg/mL. For `CN1C(=S)SC(/[N+]([O-])=C\c2ccccc2F)C1(C)C` (stereo unspecified), the solubility kinetic was over 44.8 µg/mL. Work on `Cc1ccc2ccccc2c1NC(=O)c1ccco1` yielded a solubility kinetic of over 37.7 µg/mL. Molecule `CC(C)CCNc1nc(N)c([N+](=O)[O-])c(NC2CCCCC2)n1` has a solubility kinetic of under 0.1 µg/mL. With `COc1ccc(C(C)=O)cc1COC(=O)c1cccnc1SC` the solubility kinetic was under 0.7 µg/mL. With `O=[N+]([O-])c1cccc(CSc2ncnc3ccccc23)c1` the solubility kinetic was 2 µg/mL (≈ 6.73 µM). With `CCCC(=O)OC/C(O)=C(\C#N)c1nc2ccccc2[nH]1` the solubility kinetic was 32.4 µg/mL (≈ 114 µM). With `COc1cccc(C(=O)OCC(=O)NCCC2=CCCCC2)c1` the solubility kinetic was 25.8 µg/mL (≈ 81.3 µM). Molecule `CC1CCCN(c2ccc(F)cc2N)C1.Cl` (stereo unspecified) has a solubility kinetic of 3.8 µg/mL. With `Cc1cc(=O)[nH]c(NCc2ccc(Cl)cc2)n1` the solubility kinetic was over 37.5 µg/mL. `COc1ccc(NC(=O)CCCCC(=O)Nc2ccc(OC)cc2OC)c(OC)c1` showed a solubility kinetic of 12.4 µg/mL (≈ 29.8 µM). With `CC(C)OC(=O)c1cc2c(=O)[nH]c(C(Cl)(Cl)Cl)nc2o1` the solubility kinetic was 47.6 µg/mL (≈ 140 µM). Molecule `CC(=O)Cc1nsc(Nc2ccc(C)cc2)n1` has a solubility kinetic of 35.9 µg/mL (≈ 145 µM). `CC(=O)Nc1cccc(C(=O)Nc2nc(C)cs2)c1` gave a solubility kinetic of 37.4 µg/mL (≈ 136 µM). For `O=C(c1ccccc1)N1CCC2(CC1)NCCc1[nH]cnc12`, the solubility kinetic was 42.7 µg/mL (≈ 144 µM). Work on `C(=N\NC1=NCCN1)/c1ccncc1.Cl` yielded a solubility kinetic of over 39.3 µg/mL. For `O=C(NC1CCCC1)C1CCCN(C(=O)Nc2ccccc2)C1` (stereo unspecified), the solubility kinetic was 43.9 µg/mL (≈ 139 µM). `COC(=O)c1scc(S(=O)(=O)c2ccccc2)c1N` gave a solubility kinetic of 1.9 µg/mL (≈ 6.39 µM). Molecule `Cc1cccc(C)c1NC(=O)CN1C(=O)C2CC=CCC2C1=O` (stereo unspecified) has a solubility kinetic of over 46.9 µg/mL. In the case of `CCN(Cc1ccncc1)C(=O)Cc1cccs1`, the solubility kinetic is reported as over 39.1 µg/mL. In the case of `Cc1cc(Cl)ccc1C(=O)C1CCCN(Cc2ccon2)C1` (stereo unspecified), the solubility kinetic is reported as 46.3 µg/mL (≈ 145 µM). `Cc1csc(NC(=O)CCCNC(=O)c2ccc(Cl)cc2)n1` gave a solubility kinetic of 10.2 µg/mL (≈ 30.2 µM). Molecule `COc1ccc(/C=C/C(=O)N2CCN(C)CC2)cc1OC` has a solubility kinetic of over 43.6 µg/mL. `CN(C)/C=N/c1sc2c(c1C(N)=O)CCCC2` showed a solubility kinetic of 19.4 µg/mL (≈ 77.2 µM). Work on `O=C1CC(Cc2ccccc2)C(=O)N1c1ccccn1` (stereo unspecified) yielded a solubility kinetic of over 39.9 µg/mL.
